# How the values were obtained:
# [1] = test system: Carrageenin Induced Edema of the Rat Paw; experiment: Carrageenin induced edema of the rat paw (acute anti-inflammatory activity); type: in vivo, Royal Hart, Wistar strain rats; conditions: 250 mg./kg. by gavage, 5 hours after drug (4 hours after carrageenin)
# Method: In determining the acute anti-inflammatory activity of benzimidoylacetonitrile, Royal Hart, Wistar strain rats ranging in weight from 80 to 90 grams were used. The rats were fasted overnight prior to dosing but had free access to water. The compound was administered in aqueous suspension, by gavage, in a volume of 1.7 ml. per 50 grams of rat [corresponds by hydration volume used by Winter et al., Proc. Soc. […] The phlogistic agent used was carrageenin prepared as a sterile 1% suspension in 0.9% aqueous sodium chloride for routine testing. A volume of 0.05 ml. was injected through a 26 gauge needle into the planter tissue of the right hind paw. Measurements were made 5 hours after drug administration (4 hours after carrageenin challenge). Volumes of both the normal and carrageenin inflamed feet were determined. The difference between the two measurements is considered to be the increased edema due to the carrageenin administration.
# [2] = test system: Body Temperature of Pyretic Rats; experiment: Body temperature in yeast induced pyrexia; type: in vivo, Royal Hart, Wistar strain rats; conditions: 250 mg./kg. by gavage 17 hours after yeast; measured 19 hours post challenge
# Method: The effect of benzimidoylacetonitrile on body temperature in yeast induced pyrexia was determined by the following procedure. Groups of three Royal Hart, Wistar strain rats weighing 80±5 grams were injected subcutaneously in the nape of the neck with 0.6 ml. of a 40% suspension of dried brewers yeast in distilled water. […] At 19 hours post challenge the rectal temperature of each rat was measured with an electric thermometer. Each dose response experiment was replicated one or more times.
# [3] = test system: Adjuvant Arthritis in Rats; experiment: Adjuvant induced arthritis in rats (chronic inflammation with joint destruction); type: in vivo, Royal Hart, Wistar strain rats; conditions: for % Inhibition of Control Grade (secondary lesion), Day 14 / % Inhibition of Control Grade (secondary lesion), Day 21 / % Inhibition of Swelling (primary lesion), Day 14 / % Inhibition of Swelling (primary lesion), Day 21 / Dead/Treated At 21 Days / Mean Weight Gain, Day 14 / Mean Weight Gain, Day 21: once daily days 0-13
# Source text: Adjuvant induced experimental polyarthritis is a specific systemic disease of the rat which shares interesting similarities with rheumatoid arthritis. Specifically, the histology of the two diseases bears a remarkable resemblance as shown by C. M. Pearson et al., Am. J. Pathol. 42, 73 (1963). E. M. Glenn, Am. J. Vet. Res. 27 (116), 339 (1966) has classified adjuvant induced polyarthritis as a crippling and permanent deformity resulting from diffuse connective tissue involvement around certain susceptible joints in the rat. Zahiri et al., Can. Med. Ass. J. 101, 269 (1969) have shown that the fusiform swelling of the distal joints is associated with edema, congestion and synovitis including pannus formation, all of which precede the ultimate destruction of bone and cartilage. Furthermore, Zahiri et al. indicate that the cartilage destruction in the joint is due to an invasive pannus which originates in the marginal synovium and extends across the articular surface to erode it. […] See S. Wong et al., J. Pharm. & Exptl. Ther. 185, 127 (1973) and G. R. Bobalick et al., Agents & Actions 4, 364 (1974). In a similar manner, inhibition of the progress of arthritis in paws of rats treated with the compounds of this invention also lessens associated joint deterioration.
# Groups of three Royal Hart, Wistar strain rats weighing 200±10 grams each were injected intradermally in the right hind paw with Freund's adjuvant (dried human tubercle bacilli in a mineral oil vehicle) at a dose of 2 mg./kg. of body weight. Test compounds were administered orally in a 1.5% staruh vehicle at various doses once daily on days 0 through 13 post challenge. Control rats were treated in a similar manner, but given only starch vehicle. On the 14th and 21st day post challenge the diameter of the injected paw (primary lesion) was measured by micrometer caliper. The volume of inflamed paws were estimated from these measurements and the results are expressed as percent inhibition of swelling as compared to controls. At the same time, the other inflamed sites, such as ears, paws and tail (secondary lesions) were observed and each rat was graded as to degree of inflammation and swelling present. The grading is based on a scale of 0 to 24, where 0 represents a complete absence of induced arthritic nodules and 24 represents the maximum degree of inflammation. The mean grade for each treated group is calculated and the effects of each compound are expressed as percent inhibition of the control grade. Table III records the results of these tests conducted with benzimidoylacetonitrile, m-fluorobenzimidoylacetonitrile and p-fluorobenzimidoylacetonitrile and known anti-inflammatory agents. The active compounds of the present invention suppress the progression of the arthritis and associated joint deterioration. Of particular interest is the low mortality observed with benzimidoylacetonitrile treated rats relative to either controls or rats treated with standard compounds.
# Erythema in Guinea Pigs = experiment: Ultraviolet induced erythema in guinea pigs, topical application; type: in vivo, Albino guinea pigs
# Method: Albino guinea pigs were depilitated on their flanks, the evening before testing, with a standard mixture of barium sulfide and gum acacia. On the morning of the test at 0 hour they were restrained in a plastic container which allows exposure of 3 circular spots. They were then exposed to ultraviolet irradiation from a "Hanovia" Kromayer lamp, model 10, for 60 seconds. Immediately after exposure to ultraviolet light, the guinea pigs were treated by dissolving the test compound in ethyl alcohol at various concentrations and swabbing the UV exposed areas with the aid of a cottom tipped applicator stick. At one and four hours, the degree of erythema for each of the three sites was assessed according to the following scoring system: 0=no erythema, 0.5=incomplete circle or faint erythema and 1.0=complete circle of distinct erythema. Thus, the maximum score for each animal was 3.0.
# [4] = 1% in ethyl alcohol, maximum score 3.0, ethyl alcohol control 2.5
# [5] = 1% in ethyl alcohol, maximum score 3.0, ethyl alcohol control 3.0
smiles,measurement,setting,value
CC(=O)Oc1ccccc1C(=O)O [Aspirin],C/T Edema Ratio (edema of control animals/edema of treated animals),[1],2.8
same,Decrease In Body Temp.,[2],1.5 °C
same,"% Inhibition of Control Grade (secondary lesion), Day 14",[3]; 50 mg./kg. oral,12%
same,"% Inhibition of Control Grade (secondary lesion), Day 21",[3]; 50 mg./kg. oral,9%
same,"% Inhibition of Swelling (primary lesion), Day 14",[3]; 50 mg./kg. oral,23%
same,"% Inhibition of Swelling (primary lesion), Day 21",[3]; 50 mg./kg. oral,3%
same,Dead/Treated At 21 Days,[3]; 50 mg./kg. oral,2/21
same,"Mean Weight Gain, Day 14",[3]; 50 mg./kg. oral,56 grams
same,"Mean Weight Gain, Day 21",[3]; 50 mg./kg. oral,44 grams
same,"% Inhibition of Control Grade (secondary lesion), Day 14",[3]; 100 mg./kg. oral,19%
same,"% Inhibition of Control Grade (secondary lesion), Day 21",[3]; 100 mg./kg. oral,8%
same,"% Inhibition of Swelling (primary lesion), Day 14",[3]; 100 mg./kg. oral,36%
same,"% Inhibition of Swelling (primary lesion), Day 21",[3]; 100 mg./kg. oral,13%
same,Dead/Treated At 21 Days,[3]; 100 mg./kg. oral,18/63
same,"Mean Weight Gain, Day 14",[3]; 100 mg./kg. oral,48 grams
same,"Mean Weight Gain, Day 21",[3]; 100 mg./kg. oral,53 grams
same,"% Inhibition of Control Grade (secondary lesion), Day 14",[3]; 200 mg./kg. oral,26%
same,"% Inhibition of Control Grade (secondary lesion), Day 21",[3]; 200 mg./kg. oral,17%
same,"% Inhibition of Swelling (primary lesion), Day 14",[3]; 200 mg./kg. oral,48%
same,"% Inhibition of Swelling (primary lesion), Day 21",[3]; 200 mg./kg. oral,27%
same,Dead/Treated At 21 Days,[3]; 200 mg./kg. oral,10/66
same,"Mean Weight Gain, Day 14",[3]; 200 mg./kg. oral,40 grams
same,"Mean Weight Gain, Day 21",[3]; 200 mg./kg. oral,44 grams
same,"% Inhibition of Control Grade (secondary lesion), Day 14",[3]; 400 mg./kg. oral,58%
same,"% Inhibition of Control Grade (secondary lesion), Day 21",[3]; 400 mg./kg. oral,45%
same,"% Inhibition of Swelling (primary lesion), Day 14",[3]; 400 mg./kg. oral,73%
same,"% Inhibition of Swelling (primary lesion), Day 21",[3]; 400 mg./kg. oral,48%
same,Dead/Treated At 21 Days,[3]; 400 mg./kg. oral,19/57
same,"Mean Weight Gain, Day 14",[3]; 400 mg./kg. oral,41 grams
same,"Mean Weight Gain, Day 21",[3]; 400 mg./kg. oral,55 grams
same,Erythema Score (Avg.) 1 Hr.,Erythema in Guinea Pigs; [4],1.9
same,Erythema Score (Avg.) 4 Hr.,Erythema in Guinea Pigs; [5],2.8
"N#CCC(=N)c1ccccc1 [Benzimidoylacetonitrile, benzimidoylacetonitrile]",C/T Edema Ratio (edema of control animals/edema of treated animals),[1],2.2
same,Decrease In Body Temp.,[2],1.4 °C
same,"% Inhibition of Control Grade (secondary lesion), Day 14",[3]; 25 mg./kg. oral,33%
same,"% Inhibition of Control Grade (secondary lesion), Day 21",[3]; 25 mg./kg. oral,16%
same,"% Inhibition of Swelling (primary lesion), Day 14",[3]; 25 mg./kg. oral,33%
same,"% Inhibition of Swelling (primary lesion), Day 21",[3]; 25 mg./kg. oral,32%
same,Dead/Treated At 21 Days,[3]; 25 mg./kg. oral,1/9
same,"Mean Weight Gain, Day 14",[3]; 25 mg./kg. oral,41 grams
same,"Mean Weight Gain, Day 21",[3]; 25 mg./kg. oral,38 grams
same,"% Inhibition of Control Grade (secondary lesion), Day 14",[3]; 50 mg./kg. oral,59%
same,"% Inhibition of Control Grade (secondary lesion), Day 21",[3]; 50 mg./kg. oral,48%
same,"% Inhibition of Swelling (primary lesion), Day 14",[3]; 50 mg./kg. oral,63%
same,"% Inhibition of Swelling (primary lesion), Day 21",[3]; 50 mg./kg. oral,62%
same,Dead/Treated At 21 Days,[3]; 50 mg./kg. oral,1/24
same,"Mean Weight Gain, Day 14",[3]; 50 mg./kg. oral,31 grams
same,"Mean Weight Gain, Day 21",[3]; 50 mg./kg. oral,49 grams
same,"% Inhibition of Control Grade (secondary lesion), Day 14",[3]; 100 mg./kg. oral,57%
same,"% Inhibition of Control Grade (secondary lesion), Day 21",[3]; 100 mg./kg. oral,46%
same,"% Inhibition of Swelling (primary lesion), Day 14",[3]; 100 mg./kg. oral,68%
same,"% Inhibition of Swelling (primary lesion), Day 21",[3]; 100 mg./kg. oral,60%
same,Dead/Treated At 21 Days,[3]; 100 mg./kg. oral,0/15
same,"Mean Weight Gain, Day 14",[3]; 100 mg./kg. oral,46 grams
same,"Mean Weight Gain, Day 21",[3]; 100 mg./kg. oral,65 grams
same,duration of action (in words),[3]; greater suppression of primary and secondary lesions at the 21 day observation period,longer duration of action than standards
same,mortality (in words),[3]; relative to either controls or rats treated with standard compounds,low mortality
same,Erythema Score (Avg.) 1 Hr.,Erythema in Guinea Pigs; [4],1.0
same,Erythema Score (Avg.) 4 Hr.,Erythema in Guinea Pigs; [5],2.8
same,Erythema Score (Avg.) 1 Hr.,"Erythema in Guinea Pigs; 2% in ethyl alcohol, maximum score 3.0, control 2.5",0.6
same,Erythema Score (Avg.) 4 Hr.,"Erythema in Guinea Pigs; 2% in ethyl alcohol, maximum score 3.0, control 3.0",2.7
